What was measured:
[1] = Example 1: bempedoic acid vs placebo, patients with a history of diabetes on MTD statin, 52 weeks (HbA1c, fasting glucose); format: in vivo, human; conditions: background MTD statin (50% high intensity), FIG. 2 and FIG. 3
From the text: (§1) Patients with diabetes were identified primarily through medical history and/or baseline lab results. No entry restrictions were placed on these patients with the exception of having a HbA1c <10% during screening. The use of background concomitant medications related to diabetes treatment was captured at the study outset. Changes in all concomitant medications were tracked during the treatment phase. No restrictions were placed on changes in diabetes medications (stopping, starting, or changing dose) during the trial.
2230 total patients were receiving background MTD statin (50% high intensity) for 52 weeks. […] Patients were treated with bempedoic acid or placebo. The baseline HbA1c levels for patients receiving bempedoic acid was 6.85%, and the baseline HbA1c levels for patients receiving placebo was 6.89%. The baseline fasting glucose levels for patients receiving bempedoic acid was 131.4 mg/dl. The baseline fasting glucose levels for patients receiving placebo was 130.6 mg/dl. Changes in HbA1c levels were measured at week 12 and week 52 and changes in fasting glucose levels were measured at weeks 4, 8, 12, 24, and 36 and 52.

[2] = Example 2: bempedoic acid vs placebo, statin-intolerant patients with a history of diabetes, 24 weeks; format: in vivo, human; conditions: statin intolerant (8% very low dose statin), FIG. 4 and FIG. 5
From the text: as §1
345 total patients with statin intolerance (8% very low dose statin) were treated for 24 weeks. […] Patients were treated with bempedoic acid or placebo. The baseline HbA1c levels for patients receiving bempedoic acid was 6.91%, and the baseline HbA1c levels for patients receiving placebo was 7.12%. The baseline fasting glucose levels for patients receiving bempedoic acid was 130.7 mg/dl. The baseline fasting glucose levels for patients receiving placebo was 139.8 mg/dl. Changes in HbA1c levels were measured at week 12 and week 24 and changes in fasting glucose levels were measured at weeks 4, 12, and 24.

[3] = Example 3: bempedoic acid vs placebo, statin-intolerant patients on background ezetimibe, 12 weeks; format: in vivo, human; conditions: statin intolerant (31% low/very low dose statin), FIG. 6 and FIG. 7
From the text: as §1
269 total patients with statin intolerance (31% low/very dose statin) were treated for 12 weeks; all patients on background ezetimibe therapy. […] Patients were treated with bempedoic acid or placebo. The baseline HbA1c levels for patients receiving bempedoic acid was 6.66%, and the baseline HbA1c levels for patients receiving placebo was 6.76%. The baseline fasting glucose levels for patients receiving bempedoic acid was 133.7 mg/dl. The baseline fasting glucose levels for patients receiving placebo was 133.4 mg/dl. Changes in HbA1c levels were measured at week 12, and changes in fasting glucose levels were measured at weeks 4, 8, and 12.

[4] = Cumulative data of Examples 1-4: new onset or worsening of diabetes; format: in vivo, human; conditions: patients taking statins plus bempedoic acid; statins plus placebo 5.6%
[5] = Pharmacokinetics of ETC-1002; conditions: human, in vivo
Experimental: In some aspects, the methods herein provide for treating cardiovascular disease and/or reducing the risk of cardiovascular disease in a subject comprising administering an amount of a composition comprising ETC-1002 which is rapidly absorbed having a Tmax at less than about 4 hours.

[6] = Thorough QT/QTc (TQT) study of ETC-1002; format: in vivo
[7] = Muscle-related adverse events with add-on ETC-1002 therapy to statin therapy; format: in vivo
From the text: In some aspects, the subject experiences an adverse event when on one or more statins at the lowest FDA approved dose, said adverse events being selected form the group consisting of muscle-related pain, aches, weakness, and cramping.

SMILES: CC(C)(CCCCCC(O)CCCCCC(C)(C)C(=O)O)C(=O)O [ETC-1002, 8-hydroxy-2,2,14,14 tetramethylpentadecanedioic acid]
- incidence of diabetes-related phenotypes, worsening of diabetes, new onset of diabetes [1]: reduces the incidence of diabetes-related phenotypes, worsening of diabetes, and new onset of diabetes relative to placebo
- incidence of diabetes-related phenotypes, worsening of diabetes, new onset of diabetes [2]: reduces incidence of diabetes-related phenotypes, worsening of diabetes, and new onset of diabetes relative to placebo
- incidence of diabetes-related phenotypes, worsening of diabetes, new onset of diabetes [3]: reduces the incidence of diabetes-related phenotypes, worsening of diabetes, and new onset of diabetes relative to placebo
- frequency of new onset or worsening of diabetes and diabetes-related symptoms [4]: 4%
- Tmax ([5]; rapidly absorbed): < 4 h
- half-life ([5]; systemic exposure, AUCtau,ss): 15 to 27 h
- QTc or QT/QTc prolongation ([6]; TQT study): does not prolong QTc or QT/QTc
- heart rate and PR and QRS intervals ([6]; add-on ETC-1002 therapy): does not affect subject heart rate and PR and QRS intervals
- muscle-related adverse events that began or increased during statin therapy [7]: significantly lowered or even resolved

Source: patent publication US20210322376A1, “METHODS FOR REDUCING THE RISK OF DIABETES IN PATIENTS BEING TREATED FOR HIGH CHOLESTEROL-RELATED ILLNESSES” (Esperion Therapeutics, Inc., priority 2018, published 2021)
